Tested on: ceramidase in HL-60 cells
Assay: Inhibition of L-e-MAPP metabolism in cells (ceramidase activity in cells)
Format: cell-based, human
Protocol: Metabolism studies. Lipids from cells treated with ^3 H-labeled compounds were extracted (Bligh & Dyer method), dried, resuspended in chloroform/methnol (10:1, v/v), and subjected to separation by TLC in chloroform/methanol (4:1, v/v). Spots containing radioactive compounds were scraped and radioactivity was measured using a scintillation counter.
Since D-e-MAPP inhibits ceramidase in cells, then it should also protect L-e-MAPP from metabolic degradation. Therefore, the effects of D-e-MAPP on metabolism of L-e-MAPP were examined. HL-60 cells were treated with tritium-labeled L-e-MAPP (3 μM), and the metabolism of L-e-MAPP was evaluated in the presence and absence of 3 μM D-e-MAPP. […] The effects of D-e-MAPP on metabolism of L-e-MAPP were dose dependent with most of the inhibition occurring at levels of D-e-MAPP of 1-3 μM (FIG. 8B).

Compound: CCCCCCCCCCCCCC(=O)N[C@H](C)[C@@H](O)c1ccccc1 [D-e-MAPP, D-erythro-2-(N-myristolyamino)-1-phenyl-1-propanol]
- effect on breakdown of L-e-MAPP in cells (HL-60, 3 μM tritium-labeled L-e-MAPP, 3 μM D-e-MAPP): prevented the breakdown of L-e-MAPP
- levels at which most of the inhibition of L-e-MAPP metabolism occurs (HL-60, dose dependence): 1 to 3 µM

Reference: patent US5851782A, “Inhibitors of ceramidase” (Duke University, priority 1996, dated 1998)
